Data as given in ChEMBL document CHEMBL1137109, “Structure-based virtual screening and biological evaluation of potent and selective ADAM12 inhibitors” (Bioorg Med Chem Lett, 2004).

Legend:
[1] = molecular target: T1, Disintegrin and metalloproteinase domain-containing protein 12 (Homo sapiens, UniProt O43184); experiment: Inhibition of A disintegrin and metalloprotease domain 12 (ADAM12) binding in cell based assay
T1 sequence (O43184 whole entry): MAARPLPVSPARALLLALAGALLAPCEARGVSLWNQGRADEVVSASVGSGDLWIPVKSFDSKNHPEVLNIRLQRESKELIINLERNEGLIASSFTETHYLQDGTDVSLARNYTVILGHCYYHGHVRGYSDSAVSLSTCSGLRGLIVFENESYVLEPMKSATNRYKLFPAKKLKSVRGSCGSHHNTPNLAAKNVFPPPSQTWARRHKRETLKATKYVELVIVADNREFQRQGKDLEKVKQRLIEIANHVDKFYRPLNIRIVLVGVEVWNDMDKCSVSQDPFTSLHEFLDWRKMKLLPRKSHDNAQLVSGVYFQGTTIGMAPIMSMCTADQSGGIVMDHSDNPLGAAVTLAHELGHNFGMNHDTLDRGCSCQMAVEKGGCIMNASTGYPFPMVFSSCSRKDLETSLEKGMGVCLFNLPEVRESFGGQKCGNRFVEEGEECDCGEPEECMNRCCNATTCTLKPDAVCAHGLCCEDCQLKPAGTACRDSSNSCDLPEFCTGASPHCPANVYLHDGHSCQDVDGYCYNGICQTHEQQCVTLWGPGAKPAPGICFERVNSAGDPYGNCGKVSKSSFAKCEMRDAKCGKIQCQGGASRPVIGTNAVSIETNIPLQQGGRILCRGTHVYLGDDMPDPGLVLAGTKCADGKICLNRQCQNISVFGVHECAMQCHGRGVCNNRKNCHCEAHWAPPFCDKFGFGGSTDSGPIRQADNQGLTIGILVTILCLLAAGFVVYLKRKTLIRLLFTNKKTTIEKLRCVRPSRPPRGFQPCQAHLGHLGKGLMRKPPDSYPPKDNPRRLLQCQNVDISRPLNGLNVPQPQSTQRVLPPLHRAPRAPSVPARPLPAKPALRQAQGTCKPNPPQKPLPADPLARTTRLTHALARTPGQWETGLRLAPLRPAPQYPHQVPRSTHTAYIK

[2] = molecular target: T2, Disintegrin and metalloproteinase domain-containing protein 10 (Homo sapiens, UniProt O14672); experiment: In vitro inhibition of A disintegrin and metalloprotease domain 10 (ADAM10)
T2 sequence (O14672 whole entry): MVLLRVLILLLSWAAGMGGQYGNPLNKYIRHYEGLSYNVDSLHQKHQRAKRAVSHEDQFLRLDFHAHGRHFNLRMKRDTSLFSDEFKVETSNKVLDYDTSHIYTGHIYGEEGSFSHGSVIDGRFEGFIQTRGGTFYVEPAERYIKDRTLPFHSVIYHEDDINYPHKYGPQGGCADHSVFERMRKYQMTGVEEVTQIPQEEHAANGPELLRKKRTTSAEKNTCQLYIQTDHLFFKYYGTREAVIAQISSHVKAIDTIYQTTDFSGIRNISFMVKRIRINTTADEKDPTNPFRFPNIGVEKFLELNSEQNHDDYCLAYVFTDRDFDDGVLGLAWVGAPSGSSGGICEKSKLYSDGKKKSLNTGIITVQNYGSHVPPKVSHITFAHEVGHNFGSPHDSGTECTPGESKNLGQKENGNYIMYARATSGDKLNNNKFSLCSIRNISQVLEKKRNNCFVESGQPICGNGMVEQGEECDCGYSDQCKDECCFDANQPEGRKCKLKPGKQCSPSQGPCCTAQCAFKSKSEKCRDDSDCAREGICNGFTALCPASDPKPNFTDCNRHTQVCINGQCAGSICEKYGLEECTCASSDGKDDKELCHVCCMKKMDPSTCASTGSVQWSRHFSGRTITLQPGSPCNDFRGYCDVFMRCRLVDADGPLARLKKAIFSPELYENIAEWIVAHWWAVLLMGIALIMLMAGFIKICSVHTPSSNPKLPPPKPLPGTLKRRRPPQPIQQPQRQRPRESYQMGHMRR

[3] = molecular target: Disintegrin and metalloproteinase domain-containing protein 17 (Homo sapiens, UniProt P78536); experiment: In vitro inhibition of A disintegrin and metalloprotease domain 17 (ADAM17, TACE)
Disintegrin and metalloproteinase domain-containing protein 17, sequence (P78536 whole entry, the tested form may be a part): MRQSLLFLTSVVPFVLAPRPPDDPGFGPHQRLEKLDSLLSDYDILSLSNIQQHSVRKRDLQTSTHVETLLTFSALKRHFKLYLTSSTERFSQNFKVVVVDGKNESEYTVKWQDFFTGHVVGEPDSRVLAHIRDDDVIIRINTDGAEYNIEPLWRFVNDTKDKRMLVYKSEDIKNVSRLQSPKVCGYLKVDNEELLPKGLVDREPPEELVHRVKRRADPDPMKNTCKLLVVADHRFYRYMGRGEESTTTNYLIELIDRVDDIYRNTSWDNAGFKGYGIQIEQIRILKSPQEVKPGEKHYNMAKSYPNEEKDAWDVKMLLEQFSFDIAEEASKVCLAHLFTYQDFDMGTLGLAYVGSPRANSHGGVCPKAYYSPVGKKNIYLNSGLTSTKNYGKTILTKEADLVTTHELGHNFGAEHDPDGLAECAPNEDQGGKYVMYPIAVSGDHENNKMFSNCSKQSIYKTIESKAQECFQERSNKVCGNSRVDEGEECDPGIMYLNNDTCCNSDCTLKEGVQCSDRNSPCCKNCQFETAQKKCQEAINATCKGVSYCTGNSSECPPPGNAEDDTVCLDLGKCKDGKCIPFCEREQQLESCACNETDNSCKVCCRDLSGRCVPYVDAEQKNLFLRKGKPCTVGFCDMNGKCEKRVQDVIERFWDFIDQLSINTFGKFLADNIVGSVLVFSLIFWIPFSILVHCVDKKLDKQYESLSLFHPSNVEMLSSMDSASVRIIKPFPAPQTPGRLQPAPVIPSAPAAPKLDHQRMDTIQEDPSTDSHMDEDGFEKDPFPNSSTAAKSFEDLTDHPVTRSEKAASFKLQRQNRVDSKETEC

[4] = molecular target: T3, Disintegrin and metalloproteinase domain-containing protein 9 (Homo sapiens, UniProt Q13443); experiment: In vitro inhibition of A disintegrin and metalloprotease domain 9 (ADAM9)
T3 sequence (Q13443 whole entry): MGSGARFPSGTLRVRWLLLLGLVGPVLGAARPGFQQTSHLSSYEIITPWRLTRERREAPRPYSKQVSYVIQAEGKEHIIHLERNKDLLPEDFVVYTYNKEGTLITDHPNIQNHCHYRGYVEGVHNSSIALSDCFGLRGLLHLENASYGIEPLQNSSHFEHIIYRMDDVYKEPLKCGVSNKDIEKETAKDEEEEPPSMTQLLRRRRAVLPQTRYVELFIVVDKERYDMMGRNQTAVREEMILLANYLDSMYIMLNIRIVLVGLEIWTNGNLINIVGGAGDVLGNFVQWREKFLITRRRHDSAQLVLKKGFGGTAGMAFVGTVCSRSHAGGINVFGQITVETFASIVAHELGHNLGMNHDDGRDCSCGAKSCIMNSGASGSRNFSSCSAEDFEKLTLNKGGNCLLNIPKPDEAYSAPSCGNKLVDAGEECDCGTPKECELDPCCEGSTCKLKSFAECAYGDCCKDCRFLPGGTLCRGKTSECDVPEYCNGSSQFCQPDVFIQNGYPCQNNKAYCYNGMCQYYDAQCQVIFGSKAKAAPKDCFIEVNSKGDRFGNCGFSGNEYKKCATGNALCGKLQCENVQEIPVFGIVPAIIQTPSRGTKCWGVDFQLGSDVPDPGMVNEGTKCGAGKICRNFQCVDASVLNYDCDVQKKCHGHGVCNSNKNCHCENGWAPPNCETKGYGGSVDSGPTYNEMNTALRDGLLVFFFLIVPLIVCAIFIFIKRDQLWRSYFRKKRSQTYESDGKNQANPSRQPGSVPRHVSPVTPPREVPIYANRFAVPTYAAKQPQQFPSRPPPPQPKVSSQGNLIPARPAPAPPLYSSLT

SMILES	IC50 [1] [nM]	IC50 [2] [µM]	IC50 [3] [nM]	IC50 [4] [nM]
CC(C)C(NC(=O)/C(=C\c1ccccc1F)NC(=O)c1ccccc1)C(=O)O (stereo unspecified)	40.5	> 10.5		
CC(NC(=O)/C(=C\c1ccc(Br)cc1)NC(=O)c1ccc(Br)o1)C(=O)O (stereo unspecified)	24.8			
CNC(=O)[C@H](Cc1c[nH]c2ccccc12)NC(=O)[C@@H](CC(=O)NO)CC(C)C [ILOMASTAT]	5.93	0.0081	7.5	1

The remaining molecules from weak to strong by IC50 [1], led by results:

IC50 [1] [nM]	IC50 [2] [µM]	IC50 [3] [nM]	IC50 [4] [nM]	SMILES
42.3	10.5			CC(NC(=O)/C(=C\c1ccco1)NC(=O)c1ccco1)C(=O)O (stereo unspecified)
16.7	> 10.5			O=C(O)CNC(=O)/C(=C\c1cccc(Br)c1)NC(=O)c1ccco1
